Results: ChEMBL document CHEMBL1136344, “Green tea catechins as a BACE1 (beta-secretase) inhibitor” (Bioorg Med Chem Lett, 2003)

Target: T1, Beta-secretase 1 (Homo sapiens, UniProt P56817)
Experiment: Inhibitory activity against recombinant human Beta-secretase 1

T1 sequence (P56817 whole entry): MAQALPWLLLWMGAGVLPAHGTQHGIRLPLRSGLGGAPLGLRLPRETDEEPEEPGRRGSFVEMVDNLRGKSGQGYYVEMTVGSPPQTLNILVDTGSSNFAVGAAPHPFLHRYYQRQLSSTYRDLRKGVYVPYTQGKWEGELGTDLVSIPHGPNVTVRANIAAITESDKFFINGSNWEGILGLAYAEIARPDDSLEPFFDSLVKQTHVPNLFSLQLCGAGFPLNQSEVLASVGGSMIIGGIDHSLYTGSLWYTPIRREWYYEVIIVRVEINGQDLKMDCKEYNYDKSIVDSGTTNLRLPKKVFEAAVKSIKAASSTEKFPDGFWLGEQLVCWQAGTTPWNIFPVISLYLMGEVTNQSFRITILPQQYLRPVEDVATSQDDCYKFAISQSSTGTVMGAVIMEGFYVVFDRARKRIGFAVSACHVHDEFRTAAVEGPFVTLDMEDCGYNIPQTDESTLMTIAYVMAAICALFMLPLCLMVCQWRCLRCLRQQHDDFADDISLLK

In the case of O=C(O[C@H]1Cc2c(O)cc(O)cc2O[C@H]1c1ccc(O)c(O)c1)c1cc(O)c(O)c(O)c1, the Ki is reported as 5.3 µM.

Target: T1, Beta-secretase 1
Experiment: Inhibition of human Beta-secretase 1

O=C(O[C@@H]1Cc2c(O)cc(O)cc2O[C@H]1c1ccc(O)c(O)c1)c1cc(O)c(O)c(O)c1 [(-)-CATECHINGALLATE] and O=C(O[C@H]1Cc2c(O)cc(O)cc2O[C@H]1c1ccc(O)c(O)c1)c1cc(O)c(O)c(O)c1 are within 1.5-fold of each other in IC50: 6 µM for the first, 4.5 µM for the second.

O=C(OC[C@@H]1O[C@H](OC(=O)c2cc(O)c(O)c(O)c2)[C@@H](OC(=O)c2cc(O)c(O)c(O)c2)[C@H](OC(=O)c2cc(O)c(O)c(O)c2)[C@H]1OC(=O)c1cc(O)c(O)c(O)c1)c1cc(O)c(O)c(O)c1 and O=C(O[C@@H]1O[C@@H]2COC(=O)c3cc(O)c(O)c(O)c3-c3c(cc(O)c(O)c3O)C(=O)OO[C@H]([C@H]1O)[C@@H]2O)c1cc(O)c(O)c(O)c1 cannot be ordered by IC50: greater than 160 µM for the first, greater than 160 µM for the second.

Oc1cc(O)c2c(c1)O[C@@H](c1cc(O)c(O)c(O)c1)[C@@H](O)C2 and Oc1cc(O)c2c(c1)O[C@H](c1cc(O)c(O)c(O)c1)[C@@H](O)C2 [GALLOCATECHIN] are within 1.5-fold of each other in IC50: 2.4 µM for the first, 2.5 µM for the second.
